Measured values published in patent US9730914B2, “3,5-diaminopyrazole kinase inhibitors” (Axikin Pharmaceuticals, Inc., priority 2014, dated 2017).

Experiments:
[1] = molecular target: T1, kinase domain protein of RC kinase (RCK) (Homo sapiens, UniProt Q56UN5); experiment: Kinase competition binding assay (Kd, qPCR readout), RC kinase; conditions: Kd class, read-out: RCK Activity Level
T1 construct: made in house; host or cells: E. coli BL21-derived host (T7 phage) or HEK-293
T1 sequence (Q56UN5 1061-1324 limits assumed): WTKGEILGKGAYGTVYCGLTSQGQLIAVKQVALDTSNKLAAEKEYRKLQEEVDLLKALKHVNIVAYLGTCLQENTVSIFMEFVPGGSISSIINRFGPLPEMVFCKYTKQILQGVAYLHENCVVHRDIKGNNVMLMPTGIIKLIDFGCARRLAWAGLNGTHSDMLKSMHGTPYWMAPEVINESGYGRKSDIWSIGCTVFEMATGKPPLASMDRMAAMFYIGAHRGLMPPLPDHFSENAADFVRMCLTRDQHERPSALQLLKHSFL
How it was run: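 Competition binding: DNA-tagged kinase (T7 phage or HEK-293-expressed) plus immobilized biotinylated ligand beads and compound, 1 h at room temperature, 1% DMSO. Bead-bound kinase eluted and quantified by qPCR. Kd from 11-point 3-fold dilution, top 30,000 nM, retested lower if below 0.5 nM.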

JAK3 = molecular target: T2, JAK3 (Homo sapiens, UniProt P52333); experiment: Kinase competition binding assay (Kd, qPCR readout), JAK3; conditions: for Kd: Kd class, JAK3, read-out: JAK3 Activity Level; for RCK:JAK3 selectivity ratio: ratio Kd (JAK3): Kd (RCK)
T2 construct: made in house; host or cells: E. coli BL21-derived host (T7 phage) or HEK-293
T2 sequence (P52333 811-1124 limits assumed): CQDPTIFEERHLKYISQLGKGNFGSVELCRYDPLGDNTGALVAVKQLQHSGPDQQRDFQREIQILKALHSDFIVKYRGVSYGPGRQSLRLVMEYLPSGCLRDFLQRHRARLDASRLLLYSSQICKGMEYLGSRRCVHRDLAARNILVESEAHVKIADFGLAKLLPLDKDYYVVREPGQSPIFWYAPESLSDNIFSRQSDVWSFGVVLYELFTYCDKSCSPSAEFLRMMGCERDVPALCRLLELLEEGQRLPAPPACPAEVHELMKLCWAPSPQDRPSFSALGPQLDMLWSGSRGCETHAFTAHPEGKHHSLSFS
How it was run: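 Competition binding in which kinase, either T7 phage-tagged or HEK-293-expressed and DNA-tagged, was exposed to immobilized biotinylated ligand and test compound for 1 h at room temperature. Bead-bound kinase was eluted and quantified by qPCR. Kd came from 11-point 3-fold dilutions, top concentration 30,000 nM and 1% DMSO, repeated lower if below 0.5 nM.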

JAK2 = molecular target: T3, JAK2 (Homo sapiens, UniProt O60674); experiment: Kinase competition binding assay (Kd, qPCR readout), JAK2; conditions: for Kd: Kd class, JAK2, read-out: JAK2 Activity Level; for RCK:JAK2 selectivity ratio: ratio Kd (JAK2): Kd(RCK)
T3 construct: made in house; host or cells: E. coli BL21-derived host (T7 phage) or HEK-293
T3 sequence (O60674 840-1132 limits assumed): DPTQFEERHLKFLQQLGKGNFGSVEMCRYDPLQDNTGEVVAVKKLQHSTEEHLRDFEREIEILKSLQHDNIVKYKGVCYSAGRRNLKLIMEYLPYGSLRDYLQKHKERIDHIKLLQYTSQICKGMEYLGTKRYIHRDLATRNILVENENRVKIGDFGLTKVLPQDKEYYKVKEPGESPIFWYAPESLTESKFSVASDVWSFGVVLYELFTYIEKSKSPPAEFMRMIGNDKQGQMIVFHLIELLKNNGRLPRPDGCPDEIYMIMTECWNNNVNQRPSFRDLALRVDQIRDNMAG
How it was run: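 Competition binding: DNA-tagged kinase (T7 phage or HEK-293-expressed), immobilized biotinylated ligand beads and compound in SeaBlock/PBS/Tween/DTT buffer, 1 hour at room temperature; bound kinase eluted and quantified by qPCR. Kd from 11-point 3-fold dilution, top 30,000 nM typically, final DMSO 1%.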

Structure (SMILES)	Kd [1] [nM]	Kd (JAK3) [nM]	Kd (JAK2) [nM]	RCK:JAK3 selectivity ratio (JAK3)	RCK:JAK2 selectivity ratio (JAK2)
Cc1cc(CNc2[nH]nc(Nc3ccc(S(N)(=O)=O)cc3)c2C(N)=O)cc(C)c1O [Compound 48, 5-((4-hydroxy-3,5-dimethylbenzyl)amino)-3-((4-sulfamoylphenyl)amino)-1H-pyrazole-4-carboxamide]	100 to 1000	> 1000	100 to 1000	B (B represents 10<Kd (JAK3): Kd (RCK)<100)	C (C represents 1<Kd (JAK2): Kd (RCK)<10)
Cc1cc(CNc2[nH]nc(Nc3ccc(N4CCC(N5CCCC5)CC4)nc3)c2C(N)=O)cc(C)c1O [Compound 49, 5-((4-hydroxy-3,5-dimethylbenzyl)amino)-3-((6-(4-(pyrrolidin-1-yl)piperidin-1-yl)pyridin-3-yl)amino)-1H-pyrazole-4-carboxamide]	< 50	100 to 1000	100 to 1000	A (A represents Kd (JAK3): Kd (RCK)>100)	A (A represents Kd (JAK2): Kd (RCK)>100)
Cc1cc(CNc2[nH]nc(Nc3ccc(N(C)C)cc3)c2C(N)=O)cc(C)c1O [Compound 50, 3-((4-(dimethylamino)phenyl)amino)-5-((4-hydroxy-3,5-dimethylbenzyl)amino)-1H-pyrazole-4-carboxamide]	100 to 1000	> 1000	> 1000	C (C represents 1<Kd (JAK3): Kd (RCK)<10)	C (C represents 1<Kd (JAK2): Kd (RCK)<10)
Cc1cc(CNc2[nH]nc(Nc3ccc(NC(=O)c4ccc(F)cc4)cc3)c2C(N)=O)cc(C)c1O [Compound 53, 3-((4-(4-fluorobenzamido)phenyl)amino)-5-((4-hydroxy-3,5-dimethylbenzyl)amino)-1H-pyrazole-4-carboxamide]	100 to 1000	> 1000	> 1000	A (A represents Kd (JAK3): Kd (RCK)>100)	A (A represents Kd (JAK2): Kd (RCK)>100)
COc1ccccc1C(=O)Nc1ccc(Nc2n[nH]c(NCc3cc(C)c(O)c(C)c3)c2C(N)=O)cc1 [Compound 55, 5-((4-hydroxy-3,5-dimethylbenzyl)amino)-3-((4-(2-methoxybenzamido)phenyl)amino)-1H-pyrazole-4-carboxamide]	100 to 1000	> 1000	> 1000	B (B represents 10<Kd (JAK3): Kd (RCK)<100)	B (B represents 10<Kd(JAK2): Kd (RCK)<100)
COc1cccc(C(=O)Nc2ccc(Nc3n[nH]c(NCc4cc(C)c(O)c(C)c4)c3C(N)=O)cc2)c1 [Compound 56, 5-((4-hydroxy-3,5-dimethylbenzyl)amino)-3-((4-(3-methoxybenzamido)phenyl)amino)-1H-pyrazole-4-carboxamide]	100 to 1000	> 1000	> 1000	A (A represents Kd (JAK3): Kd (RCK)>100)	B (B represents 10<Kd(JAK2): Kd (RCK)<100)
COc1ccc(C(=O)Nc2ccc(Nc3n[nH]c(NCc4cc(C)c(O)c(C)c4)c3C(N)=O)cc2)cc1 [Compound 57, 5-((4-hydroxy-3,5-dimethylbenzyl)amino)-3-((4-(4-methoxybenzamido)phenyl)amino)-1H-pyrazole-4-carboxamide]	50 to 100	> 1000	> 1000	A (A represents Kd (JAK3): Kd (RCK)>100)	A (A represents Kd (JAK2): Kd (RCK)>100)
Cc1cc(CNc2[nH]nc(Nc3ccc(N4CCC(C(C)C)CC4)cc3)c2C(N)=O)cc(C)c1O [Compound 58, 5-((4-hydroxy-3,5-dimethylbenzyl)amino)-3-((4-(4-isopropylpiperidin-1-yl)phenyl)amino)-1H-pyrazole-4-carboxamide]	100 to 1000	> 1000	> 1000	B (B represents 10<Kd (JAK3): Kd (RCK)<100)	B (B represents 10<Kd(JAK2): Kd (RCK)<100)
Cc1cc(CNc2[nH]nc(Nc3ccc(CC#N)cc3)c2C(N)=O)cc(C)c1O [Compound 61, 3-((4-(cyanomethyl)phenyl)amino)-5-((4-hydroxy-3,5-dimethylbenzyl)amino)-1H-pyrazole-4-carboxamide]	> 1000	> 1000	> 1000	C (C represents 1<Kd (JAK3): Kd (RCK)<10)	C (C represents 1<Kd (JAK2): Kd (RCK)<10)
Cc1cc(CNc2[nH]nc(Nc3ccc(NC(=O)c4ccc(C(F)(F)F)cc4)cc3)c2C(N)=O)cc(C)c1O [Compound 62, 5-((4-hydroxy-3,5-dimethylbenzyl)amino)-3-((4-(4-(trifluoromethyl)benzamido)phenyl)amino)-1H-pyrazole-4-carboxamide]	100 to 1000	> 1000	> 1000	B (B represents 10<Kd (JAK3): Kd (RCK)<100)	B (B represents 10<Kd(JAK2): Kd (RCK)<100)
Cc1cc(CNc2[nH]nc(Nc3ccc(N4CCC(C)CC4)cc3)c2C(N)=O)cc(C)c1O [Compound 63, 5-((4-hydroxy-3,5-dimethylbenzyl)amino)-3-((4-(4-methylpiperidin-1-yl)phenyl)amino)-1H-pyrazole-4-carboxamide]	100 to 1000	> 1000	> 1000	B (B represents 10<Kd (JAK3): Kd (RCK)<100)	B (B represents 10<Kd(JAK2): Kd (RCK)<100)
Cc1cc(CNc2[nH]nc(Nc3ccc(-n4ccnc4)cc3)c2C(N)=O)cc(C)c1O [drawing 179, reference compound]	< 50	< 50	< 50		
COc1ccc(Nc2n[nH]c(NCc3cc(C)c(O)c(C)c3)c2C(N)=O)cc1 [drawing 180, reference compound]	< 50	< 50	< 50		
Cc1cc(CNc2[nH]nc(Nc3cccc(Cl)c3)c2C(N)=O)cc(C)c1O [reference compound]	> 1000	> 1000	> 1000	C (C represents 1<Kd (JAK3): Kd (RCK)<10)	C (C represents 1<Kd (JAK2): Kd (RCK)<10)

The next lines start with results.

Kd [1] [nM]	Kd (JAK3) [nM]	Kd (JAK2) [nM]	Structure (SMILES)	RCK:JAK3 selectivity ratio (JAK3)	RCK:JAK2 selectivity ratio (JAK2)
> 1000	> 1000	> 1000	Cc1cc(CNc2[nH]nc(Nc3ccc(N)cc3)c2C(N)=O)cc(C)c1O [Compound 47, 3-((4-aminophenyl)amino)-5-((4-hydroxy-3,5-dimethylbenzyl)amino)-1H-pyrazole-4-carboxamide]	C (C represents 1<Kd (JAK3): Kd (RCK)<10)	C (C represents 1<Kd (JAK2): Kd (RCK)<10)
< 50	> 1000	100 to 1000	Cc1cc(CNc2[nH]nc(Nc3ccc(CN4CCOCC4)cc3)c2C(N)=O)cc(C)c1O [Compound 51, 5-((4-hydroxy-3,5-dimethylbenzyl)amino)-3-((4-(morpholinomethyl)phenyl)amino)-1H-pyrazole-4-carboxamide]	B (B represents 10<Kd (JAK3): Kd (RCK)<100)	B (B represents 10<Kd(JAK2): Kd (RCK)<100)
> 1000	> 1000	> 1000	COc1cccc(Nc2n[nH]c(NCc3cc(C)c(O)c(C)c3)c2C(N)=O)c1 [Compound 52, 5-((4-hydroxy-3,5-dimethylbenzyl)amino)-3-((3-methoxyphenyl)amino)-1H-pyrazole-4-carboxamide]	C (C represents 1<Kd (JAK3): Kd (RCK)<10)	C (C represents 1<Kd (JAK2): Kd (RCK)<10)
100 to 1000	> 1000	> 1000	Cc1cc(CNc2[nH]nc(Nc3ccc(-c4cc[nH]n4)cc3)c2C(N)=O)cc(C)c1O [Compound 54, 3-((4-(1H-pyrazol-3-yl)phenyl)amino)-5-((4-hydroxy-3,5-dimethylbenzyl)amino)-1H-pyrazole-4-carboxamide]	B (B represents 10<Kd (JAK3): Kd (RCK)<100)	B (B represents 10<Kd(JAK2): Kd (RCK)<100)
100 to 1000	> 1000	> 1000	Cc1cc(CNc2[nH]nc(Nc3ccc(N4CCOCC4=O)cc3)c2C(N)=O)cc(C)c1O [Compound 59, 5-((4-hydroxy-3,5-dimethylbenzyl)amino)-3-((4-(3-oxomorpholino)phenyl)amino)-1H-pyrazole-4-carboxamide]	B (B represents 10<Kd (JAK3): Kd (RCK)<100)	B (B represents 10<Kd(JAK2): Kd (RCK)<100)
< 50	< 50	< 50	NC(=O)c1c(Nc2ccc(S(N)(=O)=O)cc2)n[nH]c1NCc1ccc(O)cc1 [reference compound]	D (D represents Kd (JAK3): Kd(RCK)<1)	D (D represents Kd(JAK2): Kd (RCK)<1)
